Patent publication US20240366648A1, “NAD-AUGMENTATION THERAPY FOR PARKINSON'S DISEASE” (Vestlandets Innovasjonsselskap AS (VIS), priority 2021, published 2024)

Key:
patients with PD = experiment: Safety, adverse events and compliance, phase I trial; assay type: in vivo
Method: Thirty PD patients were randomly assigned (Block size 6, allocation 1:1) to 500 mg NR, provided in the form of nicotinamide riboside chloride (Niagen® from Chromadex), or placebo twice per day, 12 hours apart, using the electronic Case Report Form (Viedoc.com). The drug containers were sequentially marked by an independent third party. The NR (Niagen®) and placebo were provided by ChromaDex, USA. Each NR capsule contained 250 mg of NR. Placebo capsules contained microcrystalline cellulose. The vials and capsules containing NR and placebo were identical in shape, colour, and smell. Study drug compliance was calculated from counting returned number of study capsules and self-reporting. Participants, examining physicians, medical- and research personnel were blinded for the duration of the trial. Sample size was determined by comparing previous literature with respect to the primary objective.
At screening for trial entry, candidates underwent physical and neurological examination, brain MRI, and DaTscan. Eligible patients who entered the trial were assessed at baseline (visit 1, V1) and after four weeks of exposure to either NR or placebo (visit 2, V2). At both visits, patients underwent physical and neurological examination, including assessment by the Movement Disorder Society Unified Parkinson's Disease Rating Scale section I-IV (MDS-UPDRS), and biological sampling. MR-PET was performed within one week prior to visit 1, and at visit 2. All participants remained naïve for antiparkinson drugs for the duration of the trial. All clinical assessments were performed by a blinded movement disorders expert. Each patient was examined by the same neurologist at both visits. Methodological details on each procedure are provided below. Safety was monitored through routine clinical blood tests and registration of adverse events. Adverse events (AE) were recorded and scored by the investigative physician. Severity was scored according to severity grading defined by Common Terminology Criteria for Adverse Events v5.0 (CTCAE) as (1) mild, (2) moderate, (3) severe, (4) life-threatening or (5) death. The AE relation to the study drug was scored as (1) unrelated, (2) unlikely, (3) possible, (4) probable or (5) definitely.

NAD metabolome in CSF = experiment: CSF metabolomics (LC-MS); assay type: in vivo, human; details: all NR-recipients; oral NR 1000 mg/day, 30 days
Method: Biological material was collected at both visits, following a minimum 6-hour fasting and within 6 hours after study drug intake for visit 2. Sampling included whole blood, serum, peripheral blood mononuclear cells (PBMCs), cerebrospinal fluid (CSF) and muscle biopsy. Lumbar puncture was performed according to standard clinical procedures to collect 10 ml CSF. Needle biopsy of the vastus lateralis muscle was performed using a Bard Magnum biopsy gun (BD©, United States) and 12G×10 cm biopsy needles. Muscle biopsies were immediately dissected to remove any non-muscle tissue (e.g., fat or fascia) and snap-frozen in liquid nitrogen.
The extraction of metabolites from CSF samples was carried out as follows: 400 μl of each sample were mixed with 1600 μl of ice-cold UHPLC grade methanol. […] Recovery rate was tested for several relevant nucleotides and determined to be 93-96%, depending on the nucleotide.
Metabolite analysis was conducted using a Dionex UltiMate 3000 instrument coupled with an electrospray ionization (ESI) QExactive mass spectrometer (Thermo Scientific). […] Mass spectra were recorded using targeted single ion monitoring with an isolation window of 10 m/z with automatic gain control set to a target of […] and a maximum accumulation time of 300 ms. […] Absolute concentrations were calculated by external calibration curves using pure standards. […]

NC(=O)c1ccc[n+]([C@@H]2O[C@H](CO)[C@@H](O)[C@H]2O)c1 [NR, nicotinamide riboside]
CTCAE Grading: Upper Respiratory infection (patients with PD; 1 event, NR group): Grade 1 (1)
Adverse events (n): Anorexia (patients with PD; human, in vivo, 4 weeks): 1
Adverse events (n): Cholelithiasis (patients with PD; human, in vivo, 4 weeks): 1
Adverse events (n): Fatigue (patients with PD; human, in vivo, 4 weeks): 1
Adverse events (n): Headache (patients with PD; human, in vivo, 4 weeks): 3
Adverse events (n): Hematoma (leg) (patients with PD; human, in vivo, 4 weeks): 2
Adverse events (n): Inguinal hernia (patients with PD; human, in vivo, 4 weeks): 1
Adverse events (n): Leg Pain (patients with PD; human, in vivo, 4 weeks): 1
Adverse events (n): Nausea (patients with PD; human, in vivo, 4 weeks): 1
Adverse events (n): Upper Respiratory infection (patients with PD; human, in vivo, 4 weeks): 1
CTCAE Grading: Anorexia (patients with PD; human, in vivo, 4 weeks): Grade 1 (1)
CTCAE Grading: Cholelithiasis (patients with PD; human, in vivo, 4 weeks): Grade 1 (1)
CTCAE Grading: Fatigue (patients with PD; human, in vivo, 4 weeks): Grade 1 (1)
CTCAE Grading: Headache (patients with PD; human, in vivo, 4 weeks): Grade 1 (4)
CTCAE Grading: Inguinal hernia (patients with PD; human, in vivo, 4 weeks): Grade 1 (1)
CTCAE Grading: Leg Pain (patients with PD; human, in vivo, 4 weeks): Grade 1 (1)
CTCAE Grading: Nausea (patients with PD; human, in vivo, 4 weeks): Grade 1 (1)
Causal Relationship to Study Drug: Anorexia (patients with PD; human, in vivo, 4 weeks): Unlikely (1)
Causal Relationship to Study Drug: Cholelithiasis (patients with PD; human, in vivo, 4 weeks): Unrelated (1)
Causal Relationship to Study Drug: Fatigue (patients with PD; human, in vivo, 4 weeks): Unlikely (1)
Causal Relationship to Study Drug: Hematoma (leg) (patients with PD; human, in vivo, 4 weeks): Unrelated (2)
Causal Relationship to Study Drug: Inguinal hernia (patients with PD; human, in vivo, 4 weeks): Unrelated (1)
Causal Relationship to Study Drug: Leg Pain (patients with PD; human, in vivo, 4 weeks): Unrelated (1)
Causal Relationship to Study Drug: Nausea (patients with PD; human, in vivo, 4 weeks): Unlikely (1)
Causal Relationship to Study Drug: Upper Respiratory infection (patients with PD; human, in vivo, 4 weeks): Unlikely (1)
severity and relatedness of reported adverse events (patients with PD; in vivo): minor and considered to be unrelated to NR
subjects reporting adverse events (patients with PD; in vivo): Seven
CSF Me-2-PY levels (NAD metabolome in CSF): increase
